Test results: patent US7211600B2, “Methods of modulating c-kit tyrosine protein kinase function with indolinone compounds” (Sugen Inc., priority 1999, dated 2007)
Where two headings read alike, the source gives them in different places.

How the values were obtained:
MO7E cells [1] = assay: Apoptosis assay: cleaved PARP by western blotting; format: cell-based, human
Protocol: (§1) Samples were assayed at 24 and 48 hours. To measure activated caspase-3, samples were washed with PBS and permeabilized with ice-cold 70% ethanol. The cells were then stained with PE-conjugated polyclonal rabbit anti-active caspase-3 and analyzed by FACS. To measure cleaved PARP, samples were lysed and analyzed by western blotting with an anti-PARP antibody.

MO7E cells [2] = assay: Apoptosis assay: activated caspase-3 by FACS; format: cell-based, human
Protocol: as §1

c-kit = c-kit (Homo sapiens, UniProt P10721); conditions: MO7E cells, 250 ng/ml rh-SCF 15 min, pre-treatment Compound Eight 2 hours, Compound Six 22 hours
Protocol: (§2) MO7E cells, a human myeloid leukemia cell line, were maintained in RPMI-1640 medium supplemented with 10% fetal calf serum and 10 ng/ml each IL-3 and GM-CSF.
MO7E cells were serum starved overnight in 0.1% serum. […] Cells were stimulated with 250 ng/ml rh-SCF for 15 minutes. Following stimulation, cells were lysed and immunoprecipitated with an anti-c-kit antibody. Phosphotyrosine and protein levels were determined by western blotting.

MO7E cells [3] = assay: cells; conditions: Homo sapiens, 48 h, read-out: IC50 value for inhibition of proliferation
Protocol: as §2

c-kit, sequence (P10721 26-976): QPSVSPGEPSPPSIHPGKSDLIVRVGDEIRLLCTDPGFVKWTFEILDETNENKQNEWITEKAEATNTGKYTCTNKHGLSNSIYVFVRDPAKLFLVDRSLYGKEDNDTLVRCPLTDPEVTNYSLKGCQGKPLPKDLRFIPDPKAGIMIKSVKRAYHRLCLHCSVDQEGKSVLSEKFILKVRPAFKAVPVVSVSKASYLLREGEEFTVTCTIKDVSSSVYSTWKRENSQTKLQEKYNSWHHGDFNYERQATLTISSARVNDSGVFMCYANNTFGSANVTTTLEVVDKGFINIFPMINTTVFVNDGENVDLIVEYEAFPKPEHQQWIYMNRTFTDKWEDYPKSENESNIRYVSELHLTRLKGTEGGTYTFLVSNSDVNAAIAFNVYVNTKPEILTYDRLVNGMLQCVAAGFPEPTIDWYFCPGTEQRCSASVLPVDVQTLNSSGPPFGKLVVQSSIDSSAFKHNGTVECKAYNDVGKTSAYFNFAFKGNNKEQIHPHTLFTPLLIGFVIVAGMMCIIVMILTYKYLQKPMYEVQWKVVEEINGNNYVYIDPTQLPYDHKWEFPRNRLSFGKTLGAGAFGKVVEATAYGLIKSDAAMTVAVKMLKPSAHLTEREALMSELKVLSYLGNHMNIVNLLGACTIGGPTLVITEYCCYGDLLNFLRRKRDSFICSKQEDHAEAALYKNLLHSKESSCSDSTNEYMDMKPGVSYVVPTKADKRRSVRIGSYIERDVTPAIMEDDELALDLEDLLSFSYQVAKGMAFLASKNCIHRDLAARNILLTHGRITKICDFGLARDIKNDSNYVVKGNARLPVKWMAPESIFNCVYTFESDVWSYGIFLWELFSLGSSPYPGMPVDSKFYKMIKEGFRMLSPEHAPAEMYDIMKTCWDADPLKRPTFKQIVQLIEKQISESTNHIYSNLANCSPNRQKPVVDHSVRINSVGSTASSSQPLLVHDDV

| SMILES | increase in cleaved PARP (MO7E cells [1]; 5 μM, both timepoints (24 and 48 hours)) | increase in the amount of cleaved PARP (MO7E cells [1]; 25 μM, 48 hours) | change of the cleaved PARP effect with SCF stimulation (MO7E cells [1]; 25 μM, 48 hours, with SCF stimulation) | effect on number of apoptotic cells (activated caspase-3) (MO7E cells [2]; 5 μM, 24 or 48 hours, +/- SCF stimulation) | effect on number of apoptotic cells (activated caspase-3) (MO7E cells [2]; 25 μM, 24 hours, +/- SCF stimulation) | increase in the number of apoptotic cells (activated caspase-3) (MO7E cells [2]; 25 μM, 48 hours, SCF stimulation, compared to untreated SCF stimulated cells) | effect on number of apoptotic cells (activated caspase-3) (MO7E cells [2]; 25 μM, 48 hours, absence of SCF stimulation) | inhibition of c-kit tyrosine phosphorylation (c-kit; 0.01 μM) | inhibition of c-kit tyrosine phosphorylation (c-kit; 0.1 μM) | inhibition of c-kit tyrosine phosphorylation (c-kit; 1 μM) | inhibition of c-kit tyrosine phosphorylation (c-kit; 10 μM) | effect on number of apoptotic cells (activated caspase-3) (MO7E cells [2]; 5 μM, 24 hours, with or without SCF stimulation) | IC50 (MO7E cells [3]) |
| --- | --- | --- | --- | --- | --- | --- | --- | --- | --- | --- | --- | --- | --- |
| Cc1cc(C)c(/C=C2\C(=O)Nc3ccccc32)[nH]1 [Compound Eight] | very minimal increase | greatest increase | augmented slightly | measurable but smaller number of apoptotic cells | measurable but smaller number of apoptotic cells | approximately 50% | slight effect | – | – | – | – | – | – |
| Cc1[nH]c(/C=C2\C(=O)Nc3ccccc32)c(C)c1CCC(=O)O [Compound Six] | – | – | – | – | – | – | – | no inhibition | no inhibition | partial inhibition | complete inhibition | no effect | 5 to 7 µM |
